Experimental data from ChEMBL document CHEMBL1201862, “PubChem BioAssay data set” (2004).
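1) Cells in 96-well plates. 2) Compound, 48 h, 5 concentrations. 3) Linear interpolation between surrounding doses. 4) Unreached endpoint = highest concentration. GI50 is the concentration that inhibits growth by half.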 Calls of active or inactive are those of the source. Cut-off read from the data, not from the text of the source: active = GI50 up to about 1.1 µM and inactive = higher.

Assays:
Assay in all cases: inhibition of tumour cell growth, NCI panel, 48 h
[1] = system: 786-0
[2] = system: A498
[3] = system: A549
[4] = system: ACHN
[5] = system: CAKI-1
[6] = system: CCRF-CEM
[7] = system: COLO 205
[8] = system: DLD-1
[9] = system: DMS-273
[10] = system: EKVX
[11] = system: HCC 2998
[12] = system: HCT-116
[13] = system: HCT-15
[14] = system: HL-60
[15] = system: HOP-18
[16] = system: HOP-62
[17] = system: HT-29
[18] = system: IGROV-1
[19] = system: K562
[20] = system: KM-20L2
[21] = system: KM12
[22] = system: LOX IMVI
[23] = system: LXFL 529
[24] = system: M14
[25] = system: M19-MEL
[26] = system: MOLT-4
[27] = system: Malme-3M
[28] = system: NCI-H226
[29] = system: NCI-H23
[30] = system: NCI-H460
[31] = system: NCI-H522
[32] = system: OVCAR-3
[33] = system: OVCAR-4
[34] = system: OVCAR-5
[35] = system: OVCAR-8
[36] = system: RPMI-8226
[37] = system: RXF 393
[38] = system: SF-268
[39] = system: SF-295
[40] = system: SF-539
[41] = system: SK-MEL-28
[42] = system: SK-MEL-2
[43] = system: SK-MEL-5
[44] = system: SK-OV-3
[45] = system: SN12C
[46] = system: SNB-19
[47] = system: SNB-75
[48] = system: SNB-78
[49] = system: SR
[50] = system: SW-620
[51] = system: TK-10
[52] = system: U-251
[53] = system: UACC-257
[54] = system: UACC-62
[55] = system: UO-31
[56] = system: XF498

## COC(=O)C(=O)C(C#N)c1cccc(Cl)c1 (stereo unspecified)
[1]
  GI50: > 100 µM (inactive)
[2]
  GI50: > 100 µM (inactive)
[3]
  GI50: > 100 µM (inactive)
[4]
  GI50: > 100 µM (inactive)
[5]
  GI50: > 100 µM (inactive)
[6]
  GI50: > 100 µM (inactive)
[7]
  GI50: > 100 µM (inactive)
[8]
  GI50: > 100 µM (inactive)
[9]
  GI50: > 100 µM (inactive)
[10]
  GI50: > 100 µM (inactive)
[11]
  GI50: > 100 µM (inactive)
[12]
  GI50: > 100 µM (inactive)
[13]
  GI50: > 100 µM
[14]
  GI50: > 100 µM (inactive)
[15]
  GI50: > 100 µM (inactive)
[16]
  GI50: > 100 µM (inactive)
[17]
  GI50: > 100 µM (inactive)
[18]
  GI50: > 100 µM (inactive)
[19]
  GI50: > 100 µM (inactive)
[20]
  GI50: > 100 µM (inactive)
[21]
  GI50: > 100 µM (inactive)
[22]
  GI50: > 100 µM (inactive)
[23]
  GI50: > 100 µM (inactive)
[24]
  GI50: > 100 µM (inactive)
[25]
  GI50: > 100 µM (inactive)
[26]
  GI50: > 100 µM (inactive)
[27]
  GI50: > 100 µM (inactive)
[28]
  GI50: > 100 µM (inactive)
[29]
  GI50: > 100 µM (inactive)
[30]
  GI50: > 100 µM (inactive)
[31]
  GI50: > 100 µM (inactive)
[32]
  GI50: > 100 µM (inactive)
[33]
  GI50: > 100 µM (inactive)
[34]
  GI50: > 100 µM (inactive)
[35]
  GI50: > 100 µM (inactive)
[36]
  GI50: > 100 µM (inactive)
[37]
  GI50: > 100 µM (inactive)
[38]
  GI50: > 100 µM (inactive)
[39]
  GI50: > 100 µM (inactive)
[40]
  GI50: > 100 µM (inactive)
[41]
  GI50: > 100 µM (inactive)
[42]
  GI50: > 100 µM (inactive)
[43]
  GI50: > 100 µM (inactive)
[44]
  GI50: > 100 µM (inactive)
[45]
  GI50: > 100 µM (inactive)
[46]
  GI50: > 100 µM (inactive)
[47]
  GI50: > 100 µM (inactive)
[48]
  GI50: > 100 µM (inactive)
[49]
  GI50: > 100 µM (inactive)
[50]
  GI50: > 100 µM (inactive)
[51]
  GI50: > 100 µM (inactive)
[52]
  GI50: > 100 µM (inactive)
[53]
  GI50: > 100 µM (inactive)
[54]
  GI50: > 100 µM (inactive)
[55]
  GI50: > 100 µM (inactive)
[56]
  GI50: > 100 µM (inactive)
